The target of the assay is T1, human OX2R (Homo sapiens, UniProt O43614).
T1 construct: expressed in transfected cells; host or cells: Chinese hamster ovary (CHO) cells, kept under G418 selection
T1 sequence (O43614 1-444): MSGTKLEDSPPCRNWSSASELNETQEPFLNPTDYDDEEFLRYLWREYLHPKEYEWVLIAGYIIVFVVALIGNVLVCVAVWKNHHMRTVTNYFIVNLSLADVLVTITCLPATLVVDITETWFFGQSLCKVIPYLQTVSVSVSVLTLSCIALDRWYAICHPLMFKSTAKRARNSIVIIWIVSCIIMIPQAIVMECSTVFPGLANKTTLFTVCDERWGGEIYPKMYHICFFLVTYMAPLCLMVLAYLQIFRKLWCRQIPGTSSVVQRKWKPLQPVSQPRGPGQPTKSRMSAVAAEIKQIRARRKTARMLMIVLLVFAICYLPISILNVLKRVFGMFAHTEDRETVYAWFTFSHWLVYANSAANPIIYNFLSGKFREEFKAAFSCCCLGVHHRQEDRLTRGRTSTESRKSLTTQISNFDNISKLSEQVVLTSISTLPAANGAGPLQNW
Kind of assay: IPOne (IP-1 accumulation) assay of orexin receptor agonist activity in CHO cells expressing human OX2R. In kind it is cell-based. The settings on record: for IC50: CHO cells expressing human OX2R, IP-One assay, 2 hours incubation, four parameter logistic fit, read-out: hOX2R_IP IC50; for Emax: CHO, percent activity at maximum tested concentration, relative to reference compound at 1 uM (100% activity) for human OX2R. An excerpt: The utility of the compounds in accordance with the present invention as orexin receptor OX1R and/or OX2R agonists may be readily determined without undue experimentation by methodology well known in the art. Both the OX1R and/or OX2R G-coupled protein receptors (GPCRs) couple through the Gαq signaling pathway, which ultimately promotes calcium mobilization via inositol triphosphate (IP3) production. […] The utility of the compounds in accordance with the present invention as orexin receptor OX1R and/or OX2R agonists may be determined utilizing this assay.
In a typical experiment, the OX1 and OX2 receptor agonist activity is determined in accordance with the following general experimental method. Chinese hamster ovary (CHO) cells expressing human OX1R and/or the human OX2R were grown in Iscove's modified DMEM containing glutaMAX™, 1% G418, 100 U/mL penicillin, 100 μg/mL streptomycin and 10% heat-inactivated qualified fetal bovine serum (FBS). […] During this incubation, IP-one detection reagents were prepared (38:1:1 lysis buffer:D2:AB-cryptate reagents).
For each compound, data were fit to a four parameter logistic fit (ActivityBase software) and the EC50 was reported as the inflection point of the resulting curve. Percent effect for each test compound was determined as the percentage of sample raw value/mean max effect, where the mean max effect was derived from the mean raw value of 32 control wells per assay plate (using Orexin A (cat #003-30) at 1 μM for human OX1R and a reference compound at 1 uM with 100% activity previously established by comparison to Orexin A for human OX2R). The intrinsic orexin receptor agonist activity of a compound which may be used in the present invention may be determined by these assays.

Structures are written as SMILES.

With `CC(C)C(=O)N1[C@H](C)CN(S(=O)(=O)c2ccccc2)C[C@@H]1C(=O)NCc1ccc(-n2nccn2)cc1` (relative stereo) [Example 19-7, cis-N-(4-(2H-1,2,3-triazol-2-yl)benzyl)-1-isobutyryl-6-methyl-4-(phenylsulfonyl)piperazine-2-carboxamide], the IC50 – broadly, the concentration that gives 50% inhibition – was found to be 82.2 nM and the Emax – broadly, the greatest response seen or fitted, relative to the assay's reference – is 101%.

In the case of `O=C(NCc1ccc2ccccc2c1)C1CN(S(=O)(=O)c2cccc(F)c2)CCN1C(=O)c1cccs1` (stereo not shown) [Example 89-10, 4-[(3-fluorophenyl)sulfonyl]-N-[(naphthalen-2-yl)methyl]-1-(thiophene-2-carbonyl)piperazine-2-carboxamide], the IC50 worked out at 5300 nM and the Emax was 83.6%.

Consider `CC(C)C(=O)N1[C@H](C)CN(S(=O)(=O)c2ccccc2)C[C@@H]1C(=O)NCc1ccc(-c2ccco2)c(F)c1` (relative stereo) [Example 26, cis-N-(3-fluoro-4-(furan-2-yl)benzyl)-1-isobutyryl-6-methyl-4-(phenylsulfonyl)piperazine-2-carboxamide], for which the IC50 came out at 11.2 nM and the Emax is 100%.

Turning to `CC(C)C(=O)N1CCN(S(=O)(=O)c2ccccc2)CC1C(=O)NCc1ccc2ccccc2c1` (stereo not shown) [Example 10-4, 1-isobutyryl-N-(naphthalen-2-ylmethyl)-4-(phenylsulfonyl)piperazine-2-carboxamide], the IC50 was 2610 nM and the maximal effect (Emax) was 98.7%.

Regarding `Cc1ccsc1C(=O)N1CCN(S(=O)(=O)c2ccccc2)CC1C(=O)NCc1ccc2ccccc2c1` (stereo not shown) [Example 10-12, 1-(3-methylthiophene-2-carbonyl)-N-(naphthalen-2-ylmethyl)-4-(phenylsulfonyl)piperazine-2-carboxamide], the IC50 turned out to be 2430 nM and the Emax stood at 89.4%.

Turning to `CCc1cc(-c2ccco2)ccc1CNC(=O)[C@H]1CN(S(=O)(=O)c2ccccc2)C[C@@H](C)N1C(=O)C(C)C` (relative stereo) [Example 47-6, cis-N-(2-ethyl-4-(furan-2-yl)benzyl)-1-isobutyryl-6-methyl-4-(phenylsulfonyl)piperazine-2-carboxamide], the concentration for half-maximal inhibition (IC50) worked out at 10.9 nM and the maximal response (Emax) is 99.5%.

In the case of `O=C(NCc1ccc2ccccc2c1)C1CN(S(=O)(=O)c2ccccc2)CCN1C(=O)C1CCC1` (stereo not shown) [Example 10-6, 1-(cyclobutanecarbonyl)-N-(naphthalen-2-ylmethyl)-4-(phenylsulfonyl)piperazine-2-carboxamide], the IC50 was found to be 5000 nM and the Emax is 96.8%.

Regarding `COc1ccc(S(=O)(=O)N2CCN(C(=O)c3cccs3)C(C(=O)NCc3ccc4ccccc4c3)C2)cc1` (stereo not shown) [Example 89-7, 4-[(4-methoxyphenyl)sulfonyl]-N-[(naphthalen-2-yl)methyl]-1-(thiophene-2-carbonyl)piperazine-2-carboxamide], the IC50 was found to be 2600 nM and the Emax was 99.7%.

For `CC(C)C(=O)N1C(C(=O)NCc2ccc(-c3ccco3)cc2)CN(S(=O)(=O)c2ccccc2)CC1(C)C` (stereo not shown) [Example 83, N-(4-(furan-2-yl)benzyl)-1-isobutyryl-6,6-dimethyl-4-(phenylsulfonyl)piperazine-2-carboxamide], the IC50 was found to be 93.9 nM and the Emax was determined as 89.9%.

`CC(C)C(=O)N1[C@H](C)CN(S(=O)(=O)c2ccccc2)C[C@@H]1C(=O)NCc1ccc(-c2ncccn2)cc1` (relative stereo) [Example 19-5, cis-1-isobutyryl-6-methyl-4-(phenylsulfonyl)-N-(4-(pyrimidin-2-yl)benzyl)piperazine-2-carboxamide]: the IC50 is 79.5 nM and the Emax turned out to be 101%.

In the case of `COc1cccc(S(=O)(=O)N2CCN(C(=O)c3cccs3)C(C(=O)NCc3ccc4ccccc4c3)C2)c1` (stereo not shown) [Example 89-8, 4-[(3-methoxyphenyl)sulfonyl]-N-[(naphthalen-2-yl)methyl]-1-(thiophene-2-carbonyl)piperazine-2-carboxamide], the IC50 turned out to be 8710 nM and the Emax came out at 75.9%.

These data come from patent publication US20250282760A1 (Merck Sharp & Dohme LLC, priority 2022, published 2025).
